Assay results as given in US20150010928A1, “MEANS AND METHODS FOR ASSESSING AN ENDOCRINE DISEASE OR DISORDER” (priority 2012, published 2015).
Marks after values point to notes of the source that are not given here.

System: male rats
Test: Plasma metabolite profiling (GC-MS, LC-MS, SPE-LC-MS) in male rats dosed once daily over 28 days (OECD 407)
Format: in vivo, rat
Details: male rats, plasma, low dose
Method: Each dose group in the studies consisted of five rats per sex. Additional groups of each 5 male and female animals served as controls. […] All animals of the animal population were kept under the same constant temperature (20-24±3° C.) and the same constant humidity (30-70%). The animals of the animal population were fed ad libitum. The food to be used was essentially free of chemical or microbial contaminants. Drinking water was also offered ad libitum. Accordingly, the water was free of chemical and microbial contaminants as laid down in the European Drinking Water Directive 98/83/EG. The illumination period was 12 hours light followed by 12 hours darkness (12 hours light, from 6:00 to 18:00, and 12 hours darkness, from 18:00 to 6:00). […] The test substances (compounds) in the Tables 1 to 17 below were dosed and administered as described in the Table 18.
In the morning of day 7, 14, and 28, blood was taken from the retroorbital venous plexus from fasted anaesthetized animals. From each animal, 1 ml of blood was collected with EDTA as anticoagulant. The samples were centrifuged for generation of plasma. All plasma samples were covered with a N2 atmosphere and then stored at −80° C. until analysis.
For mass spectrometry-based metabolite profiling analyses plasma samples were extracted and a polar and a non-polar (lipid) fraction was obtained. For GC-MS analysis, the non-polar fraction was treated with methanol under acidic conditions to yield the fatty acid methyl esters. Both fractions were further derivatised with O-methyl-hydroxyamine hydrochloride and pyridine to convert Oxogroups to O-methyloximes and subsequently with a silylating agent before analysis. In LC-MS analysis, both fractions were reconstituted in appropriate solvent mixtures. HPLC was performed by gradient elution on reversed phase separation columns. Mass spectrometric detection which allows target and high sensitivity MRM (Multiple Reaction Monitoring) profiling in parallel to a full screen analysis was applied as described in WO2003073464.
Steroids and their metabolites were measured by online SPE-LC-MS (Solid phase extraction-LC-MS).
Following comprehensive analytical validation steps, the data for each analyte were normalized against data from pool samples. These samples were run in parallel through the whole process to account for process variability. The significance of treatment group values specific for sex, treatmentduration and metabolite was determined by comparing means of the treated groups to the means of the respective untreated control groups using WELCH-test and quantified with treatment ratios versus control and p-values.
The identification of the most important biomarkers per toxicity pattern was done by a ranking of the analytes in the tables below. Therefore the metabolic changes in reference treatments of a given pattern (shown in the table) were compared with changes of the same metabolite in other unrelated treatments. […] The maximum absolute value of the respective TVALUE was taken to indicate the most important metabolite for the pattern.

## C[C@]12CCC(=O)C(O)=C1CC[C@@H]1[C@@H]2CC[C@]2(C)C(=O)CC[C@@H]12 [Formestane]
Day 7
  Glucose, ratio versus control: 0.8 *
  Lysophosphatidylcholine (C20:4), ratio versus control: 0.99 *
  Threonic acid, ratio versus control: 1.27 *
Day 14
  Glucose, ratio versus control: 0.89 *
  Lysophosphatidylcholine (C20:4), ratio versus control: 0.97 *
  Threonic acid, ratio versus control: 1.24 *
Day 28
  Glucose, ratio versus control: 0.9 *
  Lysophosphatidylcholine (C20:4), ratio versus control: 0.96 *
  Threonic acid, ratio versus control: 1.44 *
